# US20150328245A1, “Agents for Eliminating Tumour-Initiating Cells” (priority 2012, published 2015)
# Tests used:
# breast cancer cells T47D = assay: In vitro 3D primary sphere forming stem cell assay; assay type: cell-based
# Procedure: (§1) This assay measures the ability of cancer stem cells to form spheres in a serum free media where the spheres are in a suspended form. Through this assay we evaluated the potency of the compounds of the invention to kill cancer stem cells in comparison with the known chemotherapeutic agent Cisplatin.
# (§2) An exemplary procedure for the assay follows. Cells were grown in three dimensions on a plastic substrate, harvested in suspension in serum-free media, then the cells in the sample were trypsinized and a single cell suspension was formed by passing through a cell strainer. The cells were diluted according to the predetermined plating efficiency for the cell line being studied by suspending the cells in stem cell culture medium. 100 uL of this suspension was added into each well of a 96 well suspension plate, and the plate was incubated at 37 degrees Celsius in 5% CO2 atmosphere for 24 hours, then 2 uL of appropriate concentrations of the compounds of the invention and cisplatin were added into each respective well along with 100 uL of stem cell culture medium, and the plates were incubated at 37 degrees Celsius under 5% CO2 atmosphere for 72 hours. 2.5 uL of the compounds of the invention and cisplatin were added to each respective well along with 50 uL of stem cell culture medium and then the plates were incubated at 37 degrees Celsius under 5% CO2 atmosphere for 72 hours. 3 uL of appropriate concentrations of the compounds of the invention and cisplatin were added to each respective well along with 50 uL of stem cell culture medium and then the plates were incubated at 37 degrees Celsius under 5% CO2 atmosphere for 72 hours, then the spheres formed were observed under a microscope then counted and scored by size.
# (§3) Results of the in vitro 3D sphere forming stem cell assay are set forth in a tabular manner. The number in each box is the total number of spheres formed in the presence of either cisplatin or compound I-2 or compound I-3 at each drug concentration. GC refers to a growth control performed in the absence of drug or solvent (DMSO). GCD refers to a growth control performed in the absence of drug, but in the presence of DMSO.
# [1] = system: prostate cancer cells PC3; assay: In vitro 3D primary sphere forming stem cell assay; assay type: cell-based
# Procedure: as §1, §2, §3
# [2] = system: prostate cancer cells DU145; assay: In vitro 3D primary sphere forming stem cell assay; assay type: cell-based
# Procedure: as §1, §2, §3
# [3] = In vivo maximum tolerated dose assay for compound I-2; parameters: species or system BALB/c mice
# Procedure: In vivo maximum tolerated dose (MTD) toxicity assay was carried out to evaluate the highest dose of a pharmaceutical treatment that will produce the desired effect without unacceptable toxicity. The purpose of administering MTD is to determine whether long-term exposure to a compound might lead to unacceptable adverse health effects in a subject, when the level of exposure is not sufficient to cause premature mortality due to short-term toxic effects.
# An exemplary procedure for the in vivo maximum tolerated dose toxicity assay follows. A statistically appropriate number of FEMALE BALB/c MICE were interperitoneally treated with the compound I-2 at three different dose levels 3 mg/kg, 1 mg/kg, and 0.3 mg/kg. Body weight and clinical sign of all the animals were observed daily during dosing and post dosing period.
smiles,measurement,setting,value
COc1cc2c(OC3OCC(OC)C(OC)C3O)c3c(c(-c4ccc5c(c4)OCO5)c2cc1OC)C(=O)OC3 (centres unmarked) [I-2],"numbers of primary spheres formed, compared with cisplatin",breast cancer cells T47D; T47D,significantly less
same,# of 3D Primary Spheres Formed of Cells T47D (±SD),breast cancer cells T47D; final conc. 0.125 μM,84(±8)
same,# of 3D Primary Spheres Formed of Cells T47D (±SD),breast cancer cells T47D; final conc. 1.25 μM,34(±5)
same,# of 3D Primary Spheres Formed of Cells T47D (±SD),breast cancer cells T47D; final conc. 12.5 μM,28(±7)
same,# of 3D Primary Spheres Formed of Cells T47D (±SD),breast cancer cells T47D; final conc. 125 μM,14(±4)
same,# of 3D Primary Spheres Formed of Cells T47D (±SD),breast cancer cells T47D; final conc. 1250 μM,0(±0)
same,"numbers of primary spheres formed, compared with cisplatin",[1]; PC3,significantly less
same,# of 3D Primary Spheres Formed of Cells PC3 (±SD),[1]; final conc. 0.125 μM,81(±9)
same,# of 3D Primary Spheres Formed of Cells PC3 (±SD),[1]; final conc. 1.25 μM,69(±3)
same,# of 3D Primary Spheres Formed of Cells PC3 (±SD),[1]; final conc. 12.5 μM,63(±8)
same,# of 3D Primary Spheres Formed of Cells PC3 (±SD),[1]; final conc. 125 μM,31(±6)
same,# of 3D Primary Spheres Formed of Cells PC3 (±SD),[1]; final conc. 1250 μM,0(±0)
same,"numbers of primary spheres formed, compared with cisplatin",[2]; DU145,significantly less
same,# of 3D Primary Spheres Formed of Cells DU145 (±SD),[2]; final conc. 0.125 μM,53(±5)
same,# of 3D Primary Spheres Formed of Cells DU145 (±SD),[2]; final conc. 1.25 μM,41(±4)
same,# of 3D Primary Spheres Formed of Cells DU145 (±SD),[2]; final conc. 12.5 μM,18(±7)
same,# of 3D Primary Spheres Formed of Cells DU145 (±SD),[2]; final conc. 125 μM,7(±1)
same,# of 3D Primary Spheres Formed of Cells DU145 (±SD),[2]; final conc. 1250 μM,0(±0)
same,toxicity finding of the given dose,[3]; 0.3 mg/kg q7d×4 i.p.,safe
same,toxicity finding of the given dose,[3]; 1 mg/kg q7d×4 i.p.,safe
same,mortality,[3]; 3 mg/kg q7d×4 i.p.,more than one mortality
same,toxicity finding of the given dose,[3]; 3 mg/kg q7d×4 i.p.,toxic
same,Mean body weight,"[3]; G1 3 mg/kg q7dX4, day 1",2 g
same,Mean body weight,"[3]; G1 3 mg/kg q7dX4, day 2",2 g
same,Mean body weight,"[3]; G1 3 mg/kg q7dX4, day 3",2 g
same,Mean body weight,"[3]; G1 3 mg/kg q7dX4, day 4",2 g
same,Mean body weight,"[3]; G1 3 mg/kg q7dX4, day 5",2 g
same,Mean body weight,"[3]; G1 3 mg/kg q7dX4, day 6",2 g
same,Mean body weight,"[3]; G1 3 mg/kg q7dX4, day 7",2 g
same,Mean body weight,"[3]; G1 3 mg/kg q7dX4, day 8",2 g
same,Mean body weight,"[3]; G1 3 mg/kg q7dX4, day 9",2 g
same,Mean body weight,"[3]; G1 3 mg/kg q7dX4, day 10",2 g
same,Mean body weight,"[3]; G1 3 mg/kg q7dX4, day 11",2 g
same,Mean body weight,"[3]; G1 3 mg/kg q7dX4, day 12",2 g
same,Mean body weight,"[3]; G1 3 mg/kg q7dX4, day 13",2 g
same,Mean body weight,"[3]; G1 3 mg/kg q7dX4, day 14",2 g
same,Mean body weight,"[3]; G1 3 mg/kg q7dX4, day 15",2 g
same,Mean body weight,"[3]; G1 3 mg/kg q7dX4, day 16",2 g
same,Mean body weight,"[3]; G1 3 mg/kg q7dX4, day 17",2 g
same,Mean body weight,"[3]; G1 3 mg/kg q7dX4, day 18",2 g
same,Mean body weight,"[3]; G1 3 mg/kg q7dX4, day 19",2 g
same,Mean body weight,"[3]; G1 3 mg/kg q7dX4, day 20",2 g
same,Mean body weight,"[3]; G1 3 mg/kg q7dX4, day 21",2 g
same,Mean body weight,"[3]; G1 3 mg/kg q7dX4, day 22",2 g
same,Mean body weight,"[3]; G1 3 mg/kg q7dX4, day 23",2 g
same,Mean body weight,"[3]; G1 3 mg/kg q7dX4, day 24",2 g
same,Mean body weight,"[3]; G1 3 mg/kg q7dX4, day 25",2 g
same,Mean body weight,"[3]; G1 3 mg/kg q7dX4, day 26",2 g
same,Mean body weight,"[3]; G1 3 mg/kg q7dX4, day 27",2 g
same,Mean body weight,"[3]; G1 3 mg/kg q7dX4, day 28",2 g
same,Mean body weight,"[3]; G1 3 mg/kg q7dX4, day 29",2 g
same,Mean body weight,"[3]; G2 1 mg/kg q7dX4, day 1",23. g
same,Mean body weight,"[3]; G2 1 mg/kg q7dX4, day 2",23. g
same,Mean body weight,"[3]; G2 1 mg/kg q7dX4, day 3",23. g
same,Mean body weight,"[3]; G2 1 mg/kg q7dX4, day 4",24. g
same,Mean body weight,"[3]; G2 1 mg/kg q7dX4, day 5",24. g
same,Mean body weight,"[3]; G2 1 mg/kg q7dX4, day 6",24. g
same,Mean body weight,"[3]; G2 1 mg/kg q7dX4, day 7",24. g
same,Mean body weight,"[3]; G2 1 mg/kg q7dX4, day 8",24. g
same,Mean body weight,"[3]; G2 1 mg/kg q7dX4, day 9",24. g
same,Mean body weight,"[3]; G2 1 mg/kg q7dX4, day 10",24. g
same,Mean body weight,"[3]; G2 1 mg/kg q7dX4, day 11",24. g
same,Mean body weight,"[3]; G2 1 mg/kg q7dX4, day 12",24. g
same,Mean body weight,"[3]; G2 1 mg/kg q7dX4, day 13",25. g
same,Mean body weight,"[3]; G2 1 mg/kg q7dX4, day 14",24. g
same,Mean body weight,"[3]; G2 1 mg/kg q7dX4, day 15",24. g
same,Mean body weight,"[3]; G2 1 mg/kg q7dX4, day 16",25. g
same,Mean body weight,"[3]; G2 1 mg/kg q7dX4, day 17",25. g
same,Mean body weight,"[3]; G2 1 mg/kg q7dX4, day 18",25. g
same,Mean body weight,"[3]; G2 1 mg/kg q7dX4, day 19",25. g
same,Mean body weight,"[3]; G2 1 mg/kg q7dX4, day 20",25. g
same,Mean body weight,"[3]; G2 1 mg/kg q7dX4, day 21",25. g
same,Mean body weight,"[3]; G2 1 mg/kg q7dX4, day 22",25. g
same,Mean body weight,"[3]; G2 1 mg/kg q7dX4, day 23",25. g
same,Mean body weight,"[3]; G2 1 mg/kg q7dX4, day 24",25. g
same,Mean body weight,"[3]; G2 1 mg/kg q7dX4, day 25",25. g
same,Mean body weight,"[3]; G2 1 mg/kg q7dX4, day 26",26. g
same,Mean body weight,"[3]; G2 1 mg/kg q7dX4, day 27",25. g
same,Mean body weight,"[3]; G2 1 mg/kg q7dX4, day 28",25. g
same,Mean body weight,"[3]; G2 1 mg/kg q7dX4, day 29",25. g
same,Mean body weight,"[3]; G3 0.3 mg/kg q7dX4, day 1",2 g
same,Mean body weight,"[3]; G3 0.3 mg/kg q7dX4, day 2",2 g
same,Mean body weight,"[3]; G3 0.3 mg/kg q7dX4, day 3",2 g
same,Mean body weight,"[3]; G3 0.3 mg/kg q7dX4, day 4",2 g
same,Mean body weight,"[3]; G3 0.3 mg/kg q7dX4, day 5",2 g
same,Mean body weight,"[3]; G3 0.3 mg/kg q7dX4, day 6",2 g
same,Mean body weight,"[3]; G3 0.3 mg/kg q7dX4, day 7",2 g
same,Mean body weight,"[3]; G3 0.3 mg/kg q7dX4, day 8",2 g
same,Mean body weight,"[3]; G3 0.3 mg/kg q7dX4, day 9",2 g
same,Mean body weight,"[3]; G3 0.3 mg/kg q7dX4, day 10",2 g
same,Mean body weight,"[3]; G3 0.3 mg/kg q7dX4, day 11",2 g
same,Mean body weight,"[3]; G3 0.3 mg/kg q7dX4, day 12",2 g
same,Mean body weight,"[3]; G3 0.3 mg/kg q7dX4, day 13",2 g
same,Mean body weight,"[3]; G3 0.3 mg/kg q7dX4, day 14",2 g
same,Mean body weight,"[3]; G3 0.3 mg/kg q7dX4, day 15",2 g
same,Mean body weight,"[3]; G3 0.3 mg/kg q7dX4, day 16",2 g
same,Mean body weight,"[3]; G3 0.3 mg/kg q7dX4, day 17",2 g
same,Mean body weight,"[3]; G3 0.3 mg/kg q7dX4, day 18",2 g
same,Mean body weight,"[3]; G3 0.3 mg/kg q7dX4, day 19",2 g
same,Mean body weight,"[3]; G3 0.3 mg/kg q7dX4, day 20",2 g
same,Mean body weight,"[3]; G3 0.3 mg/kg q7dX4, day 21",2 g
same,Mean body weight,"[3]; G3 0.3 mg/kg q7dX4, day 22",2 g
same,Mean body weight,"[3]; G3 0.3 mg/kg q7dX4, day 23",2 g
same,Mean body weight,"[3]; G3 0.3 mg/kg q7dX4, day 24",2 g
same,Mean body weight,"[3]; G3 0.3 mg/kg q7dX4, day 25",2 g
same,Mean body weight,"[3]; G3 0.3 mg/kg q7dX4, day 26",2 g
same,Mean body weight,"[3]; G3 0.3 mg/kg q7dX4, day 27",2 g
same,Mean body weight,"[3]; G3 0.3 mg/kg q7dX4, day 28",2 g
same,Mean body weight,"[3]; G3 0.3 mg/kg q7dX4, day 29",2 g
same,body weight / growth pattern,[3]; group G1 3 mg/kg q7d×4,decreased body weight after first treatment then they showed normal growth pattern
same,Percentage Body weight change,"[3]; group G1 3 mg/kg q7d×4, day 2",−3.2%
same,body weight / growth pattern,[3]; group G2 1 mg/kg q7d×4,normal growth pattern throughout the experimental period
same,body weight gain compared to other treatment groups,[3]; group G2 1 mg/kg q7d×4,maximum body weight gain
same,body weight / growth pattern,[3]; group G3 0.3 mg/kg q7d×4,decreased body weight after first treatment then they showed normal growth pattern
same,body weight gain as compared to group G1,[3]; group G3 0.3 mg/kg q7d×4,marginal body weight gain
same,Percentage Body weight change,"[3]; group G3 0.3 mg/kg q7d×4, day 3",−3.8%
